Assay results published in patent publication US20240002429A1, “PRODRUG OF 5a-HYDROXY-6ß-[2-(1H-IMIDAZOL-4-YL)ETHYLAMINO]CHOLESTAN-3ß-OL AND PHARMACEUTICAL COMPOSITIONS COMPRISING SAME FOR USE IN THE TREATMENT OF CANCER” (priority 2020, published 2024).

Assays:
4T1 cells [1] = assay: Cytotoxicity on 4T1 cells, MTT; format: cell-based, murine; conditions: Mus musculus
Method: (§1) The cellular viability tests were carried out on murine mammary tumor 4T1 cells characterized as negative triples (HER2−, ER−, PR−).
(§2) For this experiment, a cell culture medium was prepared. The culture medium consists of Dulbecco's Modified Eagle Medium (DMEM, marketed by Westburg under the reference LO BE12-604F), comprising 4.5 g/L glucose with L-glutamine, to which 10% of fetal calf serum (FCS) and 50 U/mL of penicillin/streptomycin are added. The 4T1 cells are introduced into this culture medium.
(§3) 96-well plates were seeded with 2000 4T1 cells per well. After 72 hours (h) of culture in normal conditions, i.e. in an incubator at a temperature of 37° C. at 5% CO2, the 4T1 cells are treated for 48 h with DX101, DX107, DX113, DX117, DX119, DX121 or DX131 at 100 nM, 1 μM, 2.5 μM and 10 μM. A control condition (CTL) is also carried out in parallel using the protocol described above but without treatment with the molecules DX101, DX107, DX113, DX117, DX119, DX121, DX131 or DX133.
(§4) Cellular viability is measured by three different methods. For the first method, MTT labeling is carried out at 48 hours. This test is based on the use of the tetrazolium salt MTT (3-(4,5-dimethylthiazol-2-yl)-2,5-diphenyltetrazolium bromide). The tetrazolium is reduced by mitochondrial succinate dehydrogenase of active living cells, to formazan, a precipitate of a violet color. The quantity of precipitate formed is proportional to the quantity of living cells but also to the metabolic activity of each cell. […] After 48 hours, the medium is aspirated, and the cells are incubated with MTT (0.5 mg/ml in culture medium) for about 3 hours. The MTT solution is aspirated and the violet crystals are dissolved in dimethylsulfoxide (DMSO). The OD (optical density) is measured at 550 nm. The percentage viability is then determined in each well relative to the CTL and the IC50 (concentration for which there are still 50% of living cells) is determined for each molecule with Prism software using the nonlinear regression straight line (log(inhibitor) vs. Response).

4T1 cells [2] = assay: Cytotoxicity on 4T1 cells, LDH; format: cell-based, murine; conditions: Mus musculus
Method: as §1, §2, §3
(§5) For the second method, the percentage viability is determined using assay of the activity of the enzyme LDH (lactate dehydrogenase) in the cellular supernatants using the kit non radioactive cytotoxicity assay kit (Promega). LDH is an enzyme released in the supernatant of dead cells. The higher the LDH activity in the supernatant, the greater is the cell death. In this enzyme test, the LDH released converts a violet tetrazolium salt to formazan, of red color, absorbing at 490 nm. The intensity of the red color is proportional to the number of dead cells. After 48 h of treatment, the supernatants are transferred to a new 96-well plate and are incubated for 30 minutes in the presence of the substrate mix at room temperature. The reaction is stopped using the stop buffer and the absorbance is determined at 490 nm. The percentage cell death is determined here using a control 100% of maximum activity of LDH (carried out with untreated cells incubated in the presence of the lysis solution for 45 minutes at 37° C. just before adding the substrate mix), and the cellular viability in each well is then deduced from this percentage. IC50 is then determined as explained in the preceding paragraph.

4T1 cells [3] = assay: Cytotoxicity on 4T1 cells, CellTox Green Cytotoxicity Assay; format: cell-based, murine; conditions: Mus musculus
Method: as §1, §2, §3
For the third method, the percentage viability is determined using the kit CellTox Green Cytotoxicity Assay (Promega). This assay measures cell death via a change in membrane integrity. […] As a result, the higher the fluorescence in the wells, the greater is the cell death. After 48 h of treatment, the cells are incubated for a minimum of 15 minutes in the presence of the Celltox green reagent at room temperature and the fluorescence is read at […]. The percentage cell death is determined using the control 100% of cell death (carried out for untreated cells incubated in the presence of the lysis solution for 30 minutes at 37° C. before adding the Celltox green reagent), and the cellular viability in each well is then deduced from this percentage. IC50 is then determined as explained above.

[4] = tested on: BT-474 human mammary tumor cells; assay: Cytotoxicity on BT-474 cells, MTT; format: cell-based; conditions: for Mean LogIC50 (±SEM): log of IC50 in μM; for IC50: Homo sapiens
Method: as §4
(§6) The cellular viability tests were also carried out on BT-474 human mammary tumor cells (characterized as being positive triples HER2+, ER+, PR+). The BT-474 cells are in a cell culture medium identical to the preceding example and are seeded in 24-well plates at 70 000 cells per well, for determination of cellular viability using trypan blue, or in 96-well plates at 13 000 cells per well for determination of cellular viability using the MTT or LDH assay. After 96 hours (h) of culture in normal conditions, i.e. in an incubator at a temperature of 37° C. at 5% CO2, the BT-474 cells are treated for 48 h with DX101, DX107, and DX113 at 100 nM, 1 μM, 2.5 μM and 10 μM. A control is also carried out using the protocol described above but without treatment with the molecules DX101, DX107, DX113, DX117, DX119, DX121 or DX131.
(§7) After trypsin digestion for 10 minutes at 37° C., cell survival was quantified, also by a trypan blue assay with automatic counting with the Biorad TC20 equipment (TC20™ Automated Cell Counter). The trypan blue assay is based on the cell membrane integrity, which is broken in the dead cells. Trypan blue stains the dead cells blue. The Biorad TC20 cell counter counts the proportion of blue cells and non-blue cells, relative to the cell percentages. The percentage viability is then determined in each well relative to the untreated cells and the IC50 is determined as explained in the preceding example. The percentage viability of the BT-474 cells was determined using the MTT and LDH assay, carried out as described in the preceding example.

[5] = tested on: BT-474 human mammary tumor cells; assay: Cytotoxicity on BT-474 cells, LDH; format: cell-based; conditions: for Mean LogIC50 (±SEM): log of IC50 in μM; for IC50: Homo sapiens
Method: as §5, §6, §7

[6] = tested on: BT-474 human mammary tumor cells; assay: Cytotoxicity on BT-474 cells, trypan blue; format: cell-based; conditions: BT-474, trypan blue, 48 h
Method: as §6, §7

[7] = Pharmacokinetic study of DX117 (LC/MS in plasma); format: in vivo; conditions: rat, 50 mg/kg, administered compound assayed
Source text: (§8) The following study is a determination by LC/MS in plasma of the various molecules over 3 days (11 measurement points at the end). The graphs are always presented in comparison with DX101, which is the reference. […]

[8] = Pharmacokinetic study of DX121 (LC/MS in plasma); format: in vivo; conditions: rat, oral 50 mg/kg, administered compound assayed
Source text: as §8

[9] = molecular target: T1, cholesterol epoxide hydrolase (ChEH) (Homo sapiens, UniProt Q15125); assay: Activity of cholesterol epoxide hydrolase (ChEH) in MCF-7 cells, [14C]5,6α-EC metabolization by TLC; format: cell-based; conditions: MCF-7, 1 μM, 24 h, [14C]5,6α-EC 0.6 μM
T1 construct: endogenous in cells; host or cells: MCF-7
T1 sequence (Q15125 whole entry): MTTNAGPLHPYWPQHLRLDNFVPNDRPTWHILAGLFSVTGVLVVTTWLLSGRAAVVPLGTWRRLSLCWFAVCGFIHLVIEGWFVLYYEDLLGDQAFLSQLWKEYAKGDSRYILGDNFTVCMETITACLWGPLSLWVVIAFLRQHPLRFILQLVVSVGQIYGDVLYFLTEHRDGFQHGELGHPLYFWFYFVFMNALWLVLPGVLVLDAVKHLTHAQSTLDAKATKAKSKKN
Source text: The compounds 5,6α-epoxycholesterol (5,6α-EC) and 5,6β-epoxycholesterol (5,6β-EC) are oxysterols involved in the anticancer pharmacology of tamoxifen, a widely used antitumor drug. They are both metabolized in cholestan-3β,5α,6β-triol (CT) by the enzyme cholesterol-5,6-epoxide hydrolase (ChEH), and CT is metabolized by the enzyme HSD11B2 (11β-hydroxysteroid dehydrogenase 2) to 6-oxo-cholestan-3β,5α-diol (OCDO), an oncosterone tumor promoter.
MCF-7 cells are in a cell culture medium identical to example 20 and are seeded in 6-well plates at 150000 cells per well with 3 wells per treatment condition. 24 h after seeding, the MCF-7 cells are treated with [^14C]5,6α-EC (stock solution 1000×: 0.6 mM; 20 μCi/μmol; final concentration 0.6 μM) alone or in combination with tamoxifen (tam). Tamoxifen is used as positive control of the study compounds. The treatment with the compound according to the invention is carried out at a concentration of 1 μM.
After 24 hours of treatment, the media are collected and lipid extracts are prepared from the cell pellets by extraction with 100 μL of chloroform, 400 μL of methanol and 300 μL of water. The lipid extracts are analyzed by thin-layer chromatography (TLC) using ethyl acetate (EtOAc) as eluent. The analysis is carried out using a plate reader and then by autoradiography.

[10] = 4T1, MTT, 48 h, log of IC50 in μM, read-out: Mean LogIC50 (±SEM) (converted)
[11] = 4T1, LDH, 48 h, log of IC50 in μM, read-out: Mean LogIC50 (±SEM) (converted)
[12] = 4T1, Green Cytotoxicity Assay, 48 h, log of IC50 in μM, read-out: Mean LogIC50 (±SEM) (converted)
[13] = 4T1, Green Cytotoxicity Assay, 48 h, read-out: IC50
[14] = BT-474, MTT, 48 h, read-out: IC50
[15] = BT-474, LDH, 48 h, read-out: IC50
[16] = 4T1, 48 h, read-out: Mean LogIC50 (±SEM) (converted)

Row | SMILES | IC50 (4T1 cells [1]; [10]) | IC50 (4T1 cells [1]; 4T1, MTT, 48 h, read-out: IC50) | IC50 (4T1 cells [2]; [11]) | IC50 (4T1 cells [2]; 4T1, LDH, 48 h, read-out: IC50) | IC50 (4T1 cells [3]; [12]) | IC50 (4T1 cells [3]; [13]) | Mean LogIC50 (±SEM) ([4]; BT-474, MTT, 48 h) | IC50 [4, 14] | Mean LogIC50 (±SEM) ([5]; BT-474, LDH, 48 h) | IC50 [5, 15] | further results
1 | CCCCCC(=O)O[C@H]1CC[C@]2(C)[C@H]3CC[C@]4(C)[C@@H]([C@H](C)CCCC(C)C)CC[C@H]4[C@@H]3C[C@@H](NCCc3cnc[nH]3)[C@@]2(O)C1 [DX113, 5α-hydroxy-6β-[2-(1H-imidazol-4-yl)-ethylamino]-cholestan-3β-yl hexanoate] | 18.2 µM | 18.2 µM | 5.25 µM | 5.28 µM | 11 µM | 10.9 µM | 1.33 ± 0.07 | 21.4 µM | 1.38 ± 0.07 | 23.7 µM | Mean LogIC50 (±SEM) ([6]; log of IC50 in μM): 1.09 ± 0.15; IC50 ([6]; Homo sapiens): 12.3 µM
2 | CC(C)CCCC(C)[C@H]1CCC2C3C[C@@H](NCCc4c[nH]cn4)[C@@]4(O)C[C@@H](OC(=O)NCCc5c[nH]cn5)CC[C@]4(C)C3CC[C@@]21C (stereo partly drawn) [DX117, 5α-hydroxy-6β-[2-(1H-imidazol-4-yl)ethylamino]-cholestan-3β-yl-(2-(1H-imidazol-4-yl)ethyl)carbamate] | 11 µM | 10.9 µM | 8.32 µM | 8.31 µM | 9.55 µM | 9.54 µM | 0.79 ± 0.06 | 6.17 µM | 0.72 ± 0.18 | 5.25 µM | Concentration max [7]: 76.67 nM; Area under curve ([7]; 0-72 h): 2123
3 | CCCCOC(=O)O[C@H]1CC[C@]2(C)[C@H]3CC[C@]4(C)[C@@H]([C@H](C)CCCC(C)C)CC[C@H]4[C@@H]3C[C@@H](NCCc3c[nH]cn3)[C@@]2(O)C1 [DX119, 5α-hydroxy-6β-[2-(1H-imidazol-4-yl)ethylamino]cholestan-3β-yl butyl carbonate] | 9.33 µM | 9.23 µM | 3.09 µM | 3.12 µM | 3.63 µM | 3.67 µM | 1.33 ± 0.06 | 14.5 µM | 1.41 ± 0.01 | 25.4 µM | 
4 | CCOC(=O)O[C@H]1CC[C@]2(C)[C@H]3CC[C@]4(C)[C@@H]([C@H](C)CCCC(C)C)CC[C@H]4[C@@H]3C[C@@H](NCCc3c[nH]cn3)[C@@]2(O)C1 [DX121, 5α-hydroxy-6β-[2-(1H-imidazol-4-yl)ethylamino]cholestan-3β-yl ethyl carbonate] | 11 µM | 10.8 µM | 4.68 µM | 4.69 µM | 6.61 µM | 6.59 µM | 1.05 ± 0.17 | 11.2 µM | 1.47 ± 0.40 | 11.8 µM | Concentration max [8]: 96.33 nM; Area under curve ([8]; 0-72 h): 1000
5 | CCN(CC)C(=O)O[C@H]1CC[C@]2(C)C3CC[C@@]4(C)C(CC[C@@H]4C(C)CCCC(C)C)C3C[C@@H](NCCc3c[nH]cn3)[C@@]2(O)C1 (stereo partly drawn) [DX131, 5α-hydroxy-6β-[2-(1H-imidazol-4-yl)ethylamino]cholestan-3β-yl-diethyl carbamate] |  |  |  |  |  |  | 1.08 ± 0.08 |  | 1.45 ± 0.08 |  | IC50 (4T1 cells [1]; 4T1, 48 h): 25.7 µM; IC50 (4T1 cells [1]; [16]): 25.7 µM; IC50 (4T1 cells [2]; 4T1, 48 h): 6.76 µM; IC50 (4T1 cells [2]; [16]): 6.76 µM; IC50 (4T1 cells [3]; 4T1, 48 h): 1.81 µM; IC50 (4T1 cells [3]; [16]): 1.7 µM; IC50 ([4]; BT-474, 48 h): 12 µM; IC50 ([5]; BT-474, 48 h): 28.2 µM
6 | CCC(=O)NC(Cc1ccc(O)cc1)C(=O)O[C@H]1CC[C@]2(C)C3CC[C@@]4(C)C(CC[C@@H]4C(C)CCCC(C)C)C3C[C@@H](NCCc3c[nH]cn3)[C@@]2(O)C1 (stereo partly drawn) [DX133, 5α-hydroxy-6β-[2-(1H-imidazol-4-yl)ethylamino]cholestan-3β-yl propionyltyrosine] | 12.3 µM | 12.2 µM | 4.17 µM | 4.17 µM | 3.55 µM | 3.56 µM |  |  |  |  | 
7 | CC/C(=C(\c1ccccc1)c1ccc(OCCN(C)C)cc1)c1ccccc1 [tamoxifen] |  |  |  |  |  |  |  |  |  |  | inhibition of ChEH activity [9]: total inhibition
